Literature values as cited in patent US20140010866A1, “METHODS AND SYSTEMS FOR TREATMENT OF MIGRAINES AND OTHER INDICATIONS” (Strategic Science & Technologies, LLC, priority 2010, published 2014).

| Structure (SMILES) | pKa |
| --- | --- |
| CN(C)CCc1c[nH]c2ccc(CS(=O)(=O)N3CCCC3)cc12 [almotriptan] | 8.77 |
| CC(C)C[C@H]1C(=O)N2CCC[C@H]2[C@]2(O)O[C@](NC(=O)[C@@H]3C=C4c5cccc6[nH]c(Br)c(c56)C[C@H]4N(C)C3)(C(C)C)C(=O)N12 [bromocriptine] | 11.13 |
| CC(C)[C@H]1C(=O)N2CCC[C@H]2[C@]2(O)O[C@@](C)(NC(=O)[C@@H]3C=C4c5cccc6[nH]cc(c56)C[C@H]4N(C)C3)C(=O)N12 [ergovaline] | 11.64 |

Other lines, results leading:

| pKa | Structure (SMILES) |
| --- | --- |
| 17.27 | CN[C@@H]1CCc2[nH]c3ccc(C(N)=O)cc3c2C1 [frovatriptan] |
| 17.11 | CNS(=O)(=O)CCc1ccc2[nH]cc(C3CCN(C)CC3)c2c1 [naratriptan] |
| 17.15 | CN(C)CCc1c[nH]c2ccc(C[C@H]3COC(=O)N3)cc12 [zolmitriptan] |
